Laboratory results from patent publication US10369159B2, “Estrogen receptor β partial agonist having estrogen receptor α inhibitory effect, and gynecological disease therapeutic agent using same” (NOBELPHARMA CO., LTD., priority 2015, dated 2019).
Where “and” joins values, the source holds several entries; their conditions need not be identical. Equal values may be shown once.

Assays:
[1] = test system: PR; assay: Gene expression analysis of endometrial implants (TaqMan), PR; assay type: in vivo, rat; conditions: for Expression level PR: endometrial implants, corrected by GAPDH, n 6, E2 control 101.0 ± 40.3
Method: (§1) Total RNA was extracted […] the rat-derived endometrial graft (27 specimens), then quality of the RNA was inspected with a spectrophotometer and bio-analyzer, and then reverse transcription reaction of the RNA was performed, followed by gene expression analysis was performed according to TaqMan method.
(§2) RNA was extracted from the rat uterine horn strips and grafted uterine strip using the RNeasy Fibrous Tissue Mini Kit.
(§3) Concentration of the extracted RNA was measured with a NanaoDrop. Also RIN measurements using a bioanalyzer (6000 nano kits) was carried out. A 6000 pico-kit was used for bioanalyzing of the two samples with low yield (Sample ID: 202, 507).
(§4) cDNA obtained by reverse transcription reaction from 1000 ng/uL of commercially available Rat Tissue Universal Reference Total RNA (Catalog Number PR-UR-100, ZYAGEN Inc.) using SuperScript VILO Master Mix (hereinafter “Standard”) was used as a standard substance.
(§5) Based on the concentration measured with a spectrophotometer, reverse transcription reaction of the specimen with Super Script VILO Master Mix was performed to give 50 ng/uL of cDNA (the following example). As for the samples with low yield, that is Sample ID: 202, 502, 507, the reverse transcription reaction was performed to give 25 ng/uL, 25 ng/uL, and 12.5 ng/uL of cDNA, respectively.
(§6) TaqMan reaction by using Step One Plus Real-Time PCR System was performed with standard 250, 62.5, 15.625, 3.9, 0.98 ng/well or sample 5.0 ng/well. A cycle of reaction, two minutes at 50° C. and 10 minutes at 95° C., followed by 15 seconds at 95° C. and one minute at 60° C., was repeated 40 cycles, then the fluorescence value FAM was measured in real time after the reaction at 60° C. In addition to the target eight genes, GAPDH gene as an internal control gene was measured. All the standards and samples were measured in triplicate.
(§7) From each of the two calibration curves (target gene, GAPDH gene) obtained from the standard, gene expressions level of the target gene and GAPDH gene of the sample was calculated, respectively. Then, the target gene expression level was corrected by the GAPDH gene expression level, the internal control gene. And then, an average gene expression level of the samples in each group was calculated, followed by the average gene expression level of the two groups was used as a standard to compare with each of the other groups.

[2] = test system: rat endometriosis model (grafted uterine strips); assay: Endometriosis inhibiting activity: grafted uterine strip weight in ovariectomized, E2-treated rat endometriosis model; assay type: in vivo; conditions: for Total wet weight of the grafted uterine strips: left and right strips including abdominal wall, vehicle 0.4785 g, Sham 0.2596 g; for Suppression rate of grafted uterine strip weight (% ± SE): vs vehicle control, strip weight after subtracting Sham abdominal wall; for Suppression rate of the grafted uterine strip (average value): vehicle control group set as 0%, Table 2
Method: Buprenorphine hydrochloride (Lepetan injection 0.3 mg, Otsuka Pharmaceutical Co., Ltd., […] of which was diluted to 6.7 times with a physiological saline solution to provide 0.03 mg/mL solution when using) was administered subcutaneously into the back of the rats at a dose of 0.0024 mg/body (0.08 mL/body). The administration period was two days, which includes twice before and after the model preparation on the day when the model was prepared, and twice per day on the next day. It should be noted that the dosage amount of 0.0024 mg/body was the one that satisfied a recommended dose of 0.01 mg/kg in […] (0.0096 mg/kg) (estimated weight upon model preparation: 180 to 240 g).
Under 2% inhalation anesthesia, left and right flanks of the rats (operation site) were shaved, and the skin of one of the flasks was dissected. After peeling off the skin, the muscle layer was cut to open using a retractor so as to protrude it to the outside of the body with fat tissue around the ovary, then the fallopian tubes were ligated with a silk thread (sterile suture) followed by removing the ovary including the fat tissue. The peeled muscle layer and one part of the peritoneum were sutured with silk thread (sterile suture), then kanamycin solution, antibiotics, (manufactured by Meiji Seika Pharma Co., Ltd., “Meiji,” kanamycin sulfate injection of 1000 mg was diluted to 5 mg/mL with injection solvent) was applied to the operation site. The dissected skin was sutured with silk thread (sterile suture). Another ovary in the opposite side was removed in the same manner. At the time of the operation, sterile gloves were used, and surgical instruments used were sterilized by an autoclave and beads sterilizer. The surgical area was shaved with an electric clipper followed by disinfected with isodine alcohol and covered with a sterile bedsheet and a covering cloth.
Since the day of ovariectomy, after it was performed, E2 (β-Estradiol, 3 μg/mL animal) was subcutaneously administered to the back of the rats every day for 2 weeks. E2 (3 μg/mL animal) was administered in the same manner during 4 weeks after model preparation on the date that the model was prepared.
Thirteen days after ovariectomy (day 0 counting), the rats were divided into four groups (N=8) as the total weight on the grouping day was uniform in each group. Animals excluded from the groups were distributed to the Sham group.
On the next day of the grouping, models were prepared in accordance with Uchiide et al method, which was partially modified Vernon et al method. Rats were placed under inhalation anesthesia of 2% isoflurane, and made an incision in the abdomen along the midline, then the right uterine horn was excised and cut in half along the vertical line after removing the fat cells around the excised uterine horn. The uterine horn was made an incision along the horizontal axis to cut out two strips of approximately 5 mm×5 mm. The serosal surface of the abdominal cavity and the endometrial surface of the uterus strips were faced and sawed up the four corners thereof with a bioabsorbable suture (6-0, PDS-II, manufactured by Ethicon) to graft the uterine horns into the right and left abdominal walls one by one. In order to avoid adhesion, the abdominal cavity was washed with saline (manufactured by Otsuka Pharmaceutical Factory). Then, the abdominal wall fascia was sawed up with a bioabsorbable suture (4-0, monocryl, manufactured by Ethicon) and the skin was sawed up with a silk suture (4-0, blade silk, manufactured by Ethicon).
A required amount of SR16234 was weighed, pulverized with an agate mortar and pestle, and suspended in 0.5% carboxymethylcellulose sodium (CMC-Na) solution to prepare a 2 mg/mL solution, then used as undiluted solution. Preparation was performed using a volumetric flask. […]

[3] = test system: VEGF; assay: Gene expression analysis of endometrial implants (TaqMan), VEGF; assay type: in vivo, rat; conditions: for Expression level VEGF: endometrial implants, corrected by GAPDH, n 6, E2 control 1.62 ± 0.43
Method: as §1, §2, §3, §4, §5, §6, §7

[4] = in comparison with the E2 control group

## CCN(CC)Cc1ccc(OCC[C@H]2CC[C@H]3[C@@H]4[C@H](C)Cc5cc(O)ccc5[C@H]4CC[C@]23C)c(OC)c1 [SR16234, (7α)-21-[4-[(diethylamino)methyl]-2-methoxyphenoxy]-7-methyl-19-norpregna-1,3,5(10)-triene-3-ol]
[1]; 0.1 mg/kg
  Expression level PR: 94.6 ± 37.7 ng
[1]; 0.3 mg/kg
  Expression level PR: 176.2 ± 81.1 ng
[1]; 1 mg/kg
  Expression level PR: 127.8 ± 89.1 ng
[1]; [4]
  Effect on gene expression of PR (in words): slight increase trend
[2]; 0.1 mg/kg p.o. 28 days
  Total wet weight of the grafted uterine strips: 0.3988 g
[2]; 0.1 mg/kg p.o. once a day for 28 days
  Suppression rate of grafted uterine strip weight (% ± SE): 36.4 ± 25.2%
[2]; 0.1 mg/kg p.o.
  Suppression rate of the grafted uterine strip (average value): 26%
[2]; 0.3 mg/kg p.o. 28 days
  Total wet weight of the grafted uterine strips: 0.3401 g
[2]; 0.3 mg/kg p.o. once a day for 28 days
  Suppression rate of grafted uterine strip weight (% ± SE): 63.2 ± 17.7%
[2]; 0.3 mg/kg p.o.
  Suppression rate of the grafted uterine strip (average value): 45%
[2]; 1.0 mg/kg administered group
  Suppression rate of the grafted uterine strip weight compared to the vehicle control group (in words): particularly significant suppression rate
  Total wet weight of the grafted uterine strips compared to the vehicle control group (in words): particularly significant suppression ratio
[2]; 1.0 mg/kg p.o. 28 days
  Total wet weight of the grafted uterine strips: 0.2647 g
[2]; 1.0 mg/kg p.o. once a day for 28 days
  Suppression rate of grafted uterine strip weight (% ± SE): 97.7 ± 21.2%
[2]; 1.0 mg/kg p.o.
  Suppression rate of the grafted uterine strip (average value): 68% and 69.0%
[3]; 0.1 mg/kg
  Expression level VEGF: 1.44 ± 0.43 ng
[3]; 0.3 mg/kg
  Expression level VEGF: 1.65 ± 0.40 ng
[3]; 1 mg/kg
  Expression level VEGF: 1.33 ± 0.57 ng
[3]; [4]
  Effect on the gene expression of VEGF (in words): No effect
